In patent US11253527B2, “Method and composition for inhibiting virus infection” (priority 2019, dated 2022):

Legend:
[1] = system: Oral epithelial cells (OC3); test: MTT cell viability of mock- or HSV-1-infected oral epithelial cells (OC3); format: cell-based; details: OC3 cells, MTT, 19 hours post infection
Experimental: (§1) FIG. 4 provides Experimental conditions for evaluation of the effects of Antrodia camphorata fruit body extracts on oral epithelial cells during HSV-1 infection. Three experimental conditions, including no-treatment, pre-treatment and post-treatment were performed. Oral epithelial cells (OC3) were pre-treated with media only or media containing each Antrodia camphorata extracts for 2 hours, followed by HSV-1 inoculation. Cells were infected with HSV-1 viruses at multiplicity of infection (MOI) of 5 or mock infected for 1 hour at 37° C. for viral entry to occur. Antrodia camphorata extracts were not added during viral inoculation for 1 hour to avoid of its direct effects on virions. Mock- or HSV-1-infected cells were further incubated in the absence or presence of the drug for 19 hours.
The oral epithelial cell line (OC3) was used to determine the possible effects of Antrodia camphorata extracts on oral epithelial cells during HSV-1 infection. Cell monolayers were treated as illustrated in FIG. 4 (please also see details in the Materials and Methods section). Three experimental conditions, including no-treatment, pre-treatment and post-treatment were performed. Whether these Antrodia camphorata extracts have effects before or after viral infection were examined. The effects of Antrodia camphorata extracts on viral propagation (viral yields) in infected oral epithelial cells were examined. At 19-20 h post infection, viral yields in the supernatants were determined using the plaque assay. Viability of treated cells was also determined using the MTT assay for the mitochondrial dehydrogenase activity. Moreover, purified HSV-1 virions were directly treated with Antrodia camphorata extracts to examine whether Antrodia camphorata extracts exert anti-HSV-1 activity directly on virus particles before viral entry. […]
The mitochondrial dehydrogenase activity of treated cells was evaluated using the FBS-free medium containing 1 mg/ml of 3-[4,5-dimethylthiazol-2-yl]-2,5 diphenyltetrazolium bromide (MTT). […]

HSV-1 virus (KOS strain) = test: HSV-1 viral yields in supernatants of OC3 cells, plaque assay; format: cell-based, Herpes simplex virus type 1; details: for viral yields in the supernatants, post-treatment: OC3 cells post-treated after HSV-1 infection (MOI 5), 19 hours; for viral yield reduced to: media control = 100%; for viral yields in the supernatants, pre-treatment: OC3 cells pre-treated 2 hours before HSV-1 infection (MOI 5)
Experimental: as §1
(§2) The oral epithelial cell line (OC3) was used to determine the possible effects of Antrodia camphorata extracts on oral epithelial cells during HSV-1 infection. Cell monolayers were treated as illustrated in FIG. 4 (please also see details in the Materials and Methods section). Three experimental conditions, including no-treatment, pre-treatment and post-treatment were performed. Whether these Antrodia camphorata extracts have effects before or after viral infection were examined. The effects of Antrodia camphorata extracts on viral propagation (viral yields) in infected oral epithelial cells were examined. At 19-20 h post infection, viral yields in the supernatants were determined using the plaque assay. Viability of treated cells was also determined using the MTT assay for the mitochondrial dehydrogenase activity. Moreover, purified HSV-1 virions were directly treated with Antrodia camphorata extracts to examine whether Antrodia camphorata extracts exert anti-HSV-1 activity directly on virus particles before viral entry.
HSV-1 virus (KOS strain) from the extra-cellular fluid of infected Vero cells was purified using sucrose-gradient. Purified viruses were stored frozen in small aliquots. Purified viruses were titered using the plaque assay.
Oral epithelial cells (OC3 cells) were infected with HSV-1 at multiplicity of infection (MOI) of 5 or mock infected for 1 h at 37° C. for viral entry to occur. Unbound viruses were removed. Infected cells were then overlaid with appropriate media and incubated at 37° C. The Antrodia camphorata fruit body extracts used were A2 (Antrodia camphorata extracts), A3 (dehydrosulphurenic acid), A4 (antcin K), A5 (versisponic acid), and A6 (dehydroeburicoic acid). For the effects of Antrodia camphorata fruit body extracts, oral cells were treated in three different experimental conditions (FIG. 1): (1) no treatment, (2) pre-treatment with each Antrodia camphorata fruit body extracts before infection and (3) post-treatment with each Antrodia camphorata fruit body extracts after infection. Purified HSV-1 virions were also incubated directly with media only or media containing Antrodia camphorata fruit body extracts. The viral infectivity of treated virions was then examined using the plaque assay.
Viral titers in the supernatants after infection were determined using the plaque assay. Cells were grown to confluence and infected with tenfold serial dilution of the samples. Cells were then overlaid with medium containing 3% carboxymethylcellulose to prevent the formation of secondary plaques. Cells were incubated until well-defined clear plaques were formed. Cells were fixed with 3.7% formaldehyde and stained with crystal violet. Plaques were observed and counted under an inverted microscope. The viral yield of the media-pretreated HSV-1 infected control was considered to be 100%.

[2] = system: HuS-E/2 immortalized human primary hepatocytes cells; test: MTT cell viability, HuS-E/2 cells; details: 48 h, 20 μg/ml
HepG2.2.15 cells = test: MTT cell viability, HepG2.2.15 cells; details: 48 h, 20 μg/ml
HBV = HBV entry/infection of DMSO-differentiated HuS-E/2 cells (HBsAg/HBeAg ELISA, HBV mRNA RT-PCR); format: cell-based, Hepatitis B virus; details: for levels of HBV mRNA: HuS-E/2 cells, drug present during infection; for inhibiting the entry of HBV into HuS-E/2 cells: by HBsAg, HBeAg and HBV mRNA expression levels
Experimental: (§3) DMSO-differentiated HuS-E/2 cells were exposed to HBV at a MOI of 10 for 20 h in the presence of the indicated concentration of Antrodia camphorata fruit body extracts, then the HBV and drugs were removed and the cells incubated for 2 days, when HBsAg secreted into the culture medium was measured by ELISA and expressed as a percentage of the value for the non-drug-treated controls. The results are the mean±SD for three independent experiments. *, P<0.05; **, P<0.01; ***, P<0.001.
as §3, with “HBeAg” for “HBsAg”
DMSO-differentiated HuS-E/2 cells were exposed to HBV at a MOI of 10 for 20 h in the presence of the indicated concentration of Antrodia camphorata fruit body extracts, then the HBV and drugs were removed and the cells incubated for 2 days. RNA was then extracted from cells and subjected to RT-PCR to measure HBV mRNA levels. The results expressed were as a percentage of the value for the non-drug-treated cells. Control PCRs were performed for endogenous GAPDH mRNA as the loading control. The results are the mean±SD for three independent experiments. *, P<0.05; **, P<0.01; ***, P<0.001.
HuS-E/2 cells that retains primary hepatocyte characteristics even after prolonged culture are utilized for HBV infection. For HBV infection, HuS-E/2 cells were differentiated with 2% DMSO for 7 days, and virus particles were collected to infect and replicate in HuS-E/2 cells as described in our previous study. These cells are useful to assay infectivity of HBV strains, and screening of anti-HBV agents.
Total DNA is extracted with a Genomic DNA isolation kit (Nexttec Biotechnologie, Germany). Total RNA is isolated from cultured cells using TRIzol® reagent (Invitrogen). […] The results are analyzed with the iCycler iQ real-time PCR detection system (Bio-Rad). […]
To evaluate the effects of Antrodia camphorata fruit body extracts on HBV infectivity and replication, HuS-E/2 cells were infected with ayw subtype HBV derived from HepG2.2.15 cells. The different Antrodia camphorata fruit body extracts were added to the medium during infection with HBV for […], then the infected cells were washed and incubated in fresh medium for 48 hours, when HBsAg and HBeAg in culture medium were detected by ELISA and HBV mRNA was detected by real-time PCR as an index of efficiency of HBV infection.

HSV-1 virions = test: Direct effect on infectivity of purified HSV-1 virions, plaque assay; format: cell-based, Herpes simplex virus type 1; details: purified virions incubated directly with drug 1 hour at 37° C., dose-dependent
Experimental: Purified HSV-1 was incubated directly with media containing various concentrations of each Antrodia camphorata extracts for 1 hour at 37° C. The viral titers were then examined in oral epithelial cells (OC3) using the plaque assay. The results shown are the mean±SEM from at least three independent experiments. Statistical differences are shown by different lowercase letters (analysis of variance, Tukey, α=0.05).
as §2
Oral epithelial cells (OC3 cells) were infected with HSV-1 at multiplicity of infection (MOI) of 5 or mock infected for 1 h at 37° C. for viral entry to occur. Unbound viruses were removed. Infected cells were then overlaid with appropriate media and incubated at 37° C. The Antrodia camphorata fruit body extracts used were A2 (Antrodia camphorata extracts), A3 (dehydrosulphurenic acid), A4 (antcin K), A5 (versisponic acid), and A6 (dehydroeburicoic acid). […]
Viral titers in the supernatants after infection were determined using the plaque assay. […] Plaques were observed and counted under an inverted microscope. […]

[3] = OC3 cells post-treated with 2.5 μg/ml after HSV-1 infection
[4] = OC3 cells pre-treated with 10 μg/ml for 2 hours before HSV-1 infection

| Structure (SMILES) | viability of mock-infected cells or HSV-1 infected cells [1] | viral yields in the supernatants, post-treatment (HSV-1 virus (KOS strain)) | viral yield reduced to (HSV-1 virus (KOS strain); [3]) | viral yields in the supernatants, pre-treatment (HSV-1 virus (KOS strain)) | viral yield reduced to (HSV-1 virus (KOS strain); [4]) | toxic effect (MTT cell viability) [2] | toxic effect (MTT cell viability) (HepG2.2.15 cells) | viral yield reduced to (HSV-1 virus (KOS strain); OC3 cells pre-treated with 25 μg/ml for 2 hours before HSV-1 infection) | viral yield reduced to (HSV-1 virus (KOS strain); infected OC3 cells post-treated with 12.5 μg/ml) | levels of HBV mRNA (HBV) | inhibiting the entry of HBV into HuS-E/2 cells (HBV) | viral infectivity of treated HSV-1 virions (HSV-1 virions) |
| --- | --- | --- | --- | --- | --- | --- | --- | --- | --- | --- | --- | --- |
| C=C(CC[C@H](C(=O)O)[C@H]1C[C@H](O)[C@@]2(C)C3=CC[C@H]4C(C)(C)[C@@H](O)CC[C@]4(C)C3=CC[C@]12C)C(C)C [A3, dehydrosulphurenic acid] | not affected evidently | did not reach statistical difference | 65% | did not reach statistical difference | 57% | – | – | – | – | – | – | – |
| C=C(CC[C@@H](C(=O)O)[C@H]1C[C@H](OC(C)=O)[C@@]2(C)C3=C(CC[C@]12C)[C@@]1(C)CC[C@H](O)C(C)(C)[C@@H]1CC3)C(C)C [A5, versisponic acid] | not affected evidently | significantly reduced | – | significantly reduced | – | no toxic effect | little or no toxic effect | 48% | 57% | decrease | much more effective | statistically significantly inhibited |
| C=C(CC[C@@H](C(=O)O)[C@H]1CC[C@@]2(C)C3=CC[C@H]4C(C)(C)[C@@H](O)CC[C@]4(C)C3=CC[C@]12C)C(C)C [A6, dehydroeburicoic acid] | – | significantly reduced | 63% | significantly reduced | 37% | no toxic effect | – | – | – | decrease | much more effective | statistically significantly inhibited |
